According to patent US20240383881A1, “SYNTHETIC COMPOUND OF MYRICETIN AND NOBILETIN, AND PREPARATION METHOD THEREFOR” (The Second People's Hospital of Shenzhen (Shenzhen …, priority 2023, published 2024):

Key:
[1] = patients with hyperuricemia; Wang Yong et al. 2010; cited from earlier work
mice with hyperuricemia = experiment: yeast extract feed-induced hyperuricemia model in KM mice; assay type: in vivo, KunMing (KM) mice; conditions: 30 mg/kg intragastric daily for 9 weeks; for serum UA levels vs model group: P<0.001, P<0.001, P<0.01; for serum creatinine level vs model group / serum urea nitrogen level vs model group: P<0.001; for serum urea nitrogen level vs model group: FIG. 2B; for liver index vs model group: FIG. 3B, P<0.001, P<0.05, P<0.01; for renal pathological morphology (HE staining): renal tissue, x200; for kidney index vs model group: FIG. 3A, P<0.05 (synthetic compound), P<0.001 (nobiletin)
Method: Specific pathogen free (SPF) grade KunMing (KM) mice, male, aged 5-6 weeks, weighing 22-25 g, are provided by Medical Experimental Animal Center of Guangdong Province with an animal qualification certificate number: SCXK (Yue) 2022-0002. The mice are raised in plastic cages, with free diet and drinking water. The indoor temperature of the plastic cages is (22±2)° C., and a relative humidity is maintained at 55%±5%. The lights are turned on and turned off for 12 hours, respectively. After quarantine and adaptation for one week, relevant experiments are conducted. The experimental plan is reviewed and approved by the Animal Welfare Ethics Committee of Zhongke Industry Holdings (Shenzhen) Co., Ltd. (application number: 20220082), and the operation and process of animal experiments follow the “Guidelines for the use of experimental animals in teaching” of the Chinese Society of Experimental Animals. Customized dietary feeds: 15% of yeast extract feeds, in compliance with regulations of GB13078 and GB14924.2, are provided by Jiangsu Synergy Pharmaceutical Biotechnology Co., Ltd. Production license: Su Si Zheng (2019) 01008. After 2 weeks of adaptive feeding in the plastic cages, the SPF grade KM mice are randomly divided into five groups: normal group (Control), model group (Model), synthetic compound group (PJW), myricetin group (Myricetin), and nobiletin group (Nobiletin). The dosage of each individual test medicine group is 30 milligrams per kilogram (mg/kg), and the medicines are dissolved in a 0.5% carboxymethyl cellulose sodium solution with a gavage volume of 10 milliliters per kilogram (mL/kg). Except for the normal group fed with basic feed, the other groups are fed with 15% of the yeast extract feeds for modeling. The normal group and the model group are intragastrically administered an equal amount of physiological saline daily, and the other groups are intragastrically administered with the corresponding medicine daily for 9 weeks. At the end of the experiment, that is, at the end of the 9th week of administration, the KM mice are fasted for 12 hours, then the KM mice are anesthetized with the isoflurane to take off the eyeballs from the KM mice for blood collection, followed by placing the collected blood to stand in the room temperature for 1 hour. After the standing, the blood is centrifuged at 3500 revolutions per minute (rpm/min) for 15 minutes to obtain centrifuged solutions, respectively, then serums of the centrifuged solution are separated to detect the levels of the uric acid, the creatinine, the urea nitrogen. The KM mice are sacrificed by dislocation of cervical vertebra after collecting blood, livers and kidneys are dissected from the KM mice and weighed to calculate indexes of the livers and the kidneys, an organ index of the formula is as follows: organ index=organ weight (g)/body mass (g)×100%. Then the livers and the kidneys are quickly packed, one portion of the packed sample is fixed with 4% paraformaldehyde solution for HE staining, and the other portion of the packed sample is stored at −80° C. in a refrigerator for later use. The renal tissues fixed with 4% paraformaldehyde from the kidneys are taken to be dehydrated with ethanol, embedded in paraffin, and sliced. After staining with hematoxylin-eosin, the pathological changes of renal tissues are observed under an upright optical microscope. All data are statistically analyzed using a GraphPad Prism 7.00 software, and the data are presented as a mean value±a standard error (standard deviation±standard error of the mean abbreviated as SD±SEM). Multiple group comparisons are conducted using a one-way Analysis of Variance (ANOVA), and pairwise comparisons between groups are conducted using a Dunnett's test. P<0.05 indicates a statistically significant difference.

[2] = target: T1, organic anion transporter 4 (OAT4) (Homo sapiens, UniProt Q9NSA0); conditions: OAT4 overexpressed monoclonal cell line; Wang Ze et al. 2019; read-out: half-maximal inhibitory concentration (IC50) on OAT4; cited from earlier work
T1 sequence (Q9NSA0 1-550): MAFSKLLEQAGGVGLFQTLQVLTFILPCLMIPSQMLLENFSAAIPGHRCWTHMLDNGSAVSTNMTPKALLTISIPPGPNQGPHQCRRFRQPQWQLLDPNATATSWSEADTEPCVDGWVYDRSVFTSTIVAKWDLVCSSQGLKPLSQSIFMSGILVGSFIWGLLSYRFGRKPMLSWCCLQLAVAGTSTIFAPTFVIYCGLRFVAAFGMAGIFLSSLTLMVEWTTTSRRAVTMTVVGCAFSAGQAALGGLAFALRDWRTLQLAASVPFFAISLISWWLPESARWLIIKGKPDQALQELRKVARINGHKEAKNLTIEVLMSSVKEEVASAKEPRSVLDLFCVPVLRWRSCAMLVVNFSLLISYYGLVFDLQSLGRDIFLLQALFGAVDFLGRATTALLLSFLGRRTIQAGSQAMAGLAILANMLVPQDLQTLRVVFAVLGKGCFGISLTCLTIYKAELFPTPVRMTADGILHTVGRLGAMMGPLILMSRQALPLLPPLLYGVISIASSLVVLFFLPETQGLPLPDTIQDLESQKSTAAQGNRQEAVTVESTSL

Row | Compound | serum uric acid (UA) levels in patients [1] | serum UA levels vs model group (mice with hyperuricemia; FIG. 1) | serum creatinine level vs model group (mice with hyperuricemia; FIG. 2A) | serum urea nitrogen level vs model group (mice with hyperuricemia) | liver index vs model group (mice with hyperuricemia) | renal pathological morphology (HE staining) (mice with hyperuricemia; FIG. 4) | IC50 [2] [nM] | kidney index vs model group (mice with hyperuricemia) | serum UA effect compared with monomer groups (mice with hyperuricemia; FIG. 1) | effect on creatinine compared with monomer medicines (mice with hyperuricemia; FIG. 2A) | organ index effect compared with monomer groups (mice with hyperuricemia; FIGS. 3A-3B) | improvement of renal pathological morphology compared with monomer medicines (mice with hyperuricemia; HE staining, FIG. 4)
1 | O=c1c(O)c(-c2cc(O)c(O)c(O)c2)oc2cc(O)cc(O)c12 [myricetin] | significantly reduce | significantly reduced | significantly reduced | significantly reduced | significantly reduced | improve renal injury |  |  |  |  |  | 
2 | COc1ccc(-c2cc(=O)c3c(OC)c(OC)c(OC)c(OC)c3o2)cc1OC [nobiletin] |  | significantly reduced | significantly reduced | significantly reduced | significantly reduced | improve renal injury | 556 | significantly reduced |  |  |  | 
3 | COc1cc(OC)c2c(=O)c(OCCCC(=O)Oc3c(-c4ccc(OC)c(OC)c4)oc4c(OC)c(OC)c(OC)c(OC)c4c3=O)c(-c3cc(OC)c(OC)c(OC)c3)oc2c1 [synthetic compound] |  | significantly reduced | significantly reduced | significantly reduced | significantly reduced | improve renal injury |  | significantly reduced | better than that of each monomer group | better than that of monomer medicines | better than that of each monomer group | better than that of monomer medicines
